Among the data in patent US11020398B2, “Amino-pyrrolopyrimidinone compounds and methods of use thereof” (ArQule, Inc., priority 2016, dated 2021) are IC50 and inhibition values, retold here.

As a reminder, the IC50 is the concentration that inhibits the measured activity by half.

What all share (assay type): biochemical
Experiment [1] deals with phosphorylated form of full length BTK (active BTK) (Homo sapiens (Human), UniProt Q06187). The experiment can be described thus: Mobility shift assay (MSA, Caliper LabChip), active BTK assay. The settings on record: Assay type B (MSA using active BTK). The protocol: The active BTK assay consists of phosphorylated form of full length BTK. […] The enzyme inhibitor complexes is incubated, before the kinase activation reaction is initiated.
phosphorylated form of full length BTK (active BTK), sequence (Q06187 whole entry): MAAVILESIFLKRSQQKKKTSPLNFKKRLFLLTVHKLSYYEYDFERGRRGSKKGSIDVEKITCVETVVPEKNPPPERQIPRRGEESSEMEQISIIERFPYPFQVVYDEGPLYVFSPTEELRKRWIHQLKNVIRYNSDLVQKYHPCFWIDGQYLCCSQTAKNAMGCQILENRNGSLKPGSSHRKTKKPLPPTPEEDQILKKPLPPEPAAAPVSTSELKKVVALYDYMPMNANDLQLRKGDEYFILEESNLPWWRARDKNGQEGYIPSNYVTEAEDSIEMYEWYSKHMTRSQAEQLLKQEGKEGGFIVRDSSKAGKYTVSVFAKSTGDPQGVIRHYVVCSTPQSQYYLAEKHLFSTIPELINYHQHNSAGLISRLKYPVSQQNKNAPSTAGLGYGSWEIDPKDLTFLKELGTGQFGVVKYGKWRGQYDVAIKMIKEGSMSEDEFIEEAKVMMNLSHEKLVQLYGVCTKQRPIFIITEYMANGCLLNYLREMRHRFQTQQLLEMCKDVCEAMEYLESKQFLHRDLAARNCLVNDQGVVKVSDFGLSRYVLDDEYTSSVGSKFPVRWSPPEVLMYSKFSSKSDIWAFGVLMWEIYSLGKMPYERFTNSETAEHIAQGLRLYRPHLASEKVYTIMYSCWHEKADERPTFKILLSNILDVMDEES
Mobility Shift Assay (MSA)
The active BTK assay consisted of phosphorylated form of full length BTK. […] The enzyme inhibitor complexes was incubated for 30 minutes at the room temperature and the kinase activation reaction was initiated by the addition of 1 μM Srctide peptide substrate and […].

For experiment [2], the target named is full-length activated BTK (wildtype) (Homo sapiens (Human), UniProt Q06187). Put plainly: AlphaScreen assay, wild-type BTK. The settings on record: for inhibition at 10 µM: read-out: BTK % @ 10 uM, @ 10 uM.
full-length activated BTK (wildtype), sequence (Q06187 whole entry): as above
Experiment [3] deals with full-length activated BTK mutant C481S (Homo sapiens (Human), UniProt Q06187, C481S). Put plainly: AlphaScreen assay, BTK mutant C481S. The settings on record: for inhibition at 10 µM: read-out: BTK-C481S % @ 10 uM, @ 10 uM. Background: In Alpha technology, singlet oxygen from a donor bead excites a nearby acceptor bead.
full-length activated BTK mutant C481S, sequence (Q06187 whole entry C481S): as the sequence (Q06187 whole entry) above, with C481S counted along it

Take `O=C(c1ccc(Oc2ccccc2)cc1Cl)c1c[nH]c2ncnc(N[C@H]3CC[C@@H](O)[C@@H](O)C3)c12` (racemic) [Compound I-179, rac-(2-chloro-4-phenoxyphenyl)(4-(((1S,3S,4R)-3,4-dihydroxycyclohexyl)amino)-7H-pyrrolo[2,3-d]pyrimidin-5-yl)methanone]: the IC50 in experiment [1] was 1.8 nM.
On to `O=C(Nc1ccccc1)c1cccc(C(=O)c2c[nH]c3ncnc(N[C@@H]4CC[C@@H](CO)OC4)c23)c1` [Compound I-634, 3-(4-(((3R,6S)-6-(hydroxymethyl)tetrahydro-2H-pyran-3-yl)amino)-7H-pyrrolo[2,3-d]pyrimidine-5-carbonyl)-N-phenylbenzamide], for which the IC50 in experiment [2] came out at 620 nM; in experiment [3], 690 nM.
With `O=C(c1cccc(C(=O)N2CCOCC2)c1)c1c[nH]c2ncnc(N[C@@H]3CC[C@@H](CO)OC3)c12` [Compound I-635, (4-(((3R,6S)-6-(hydroxymethyl)tetrahydro-2H-pyran-3-yl)amino)-7H-pyrrolo[2,3-d]pyrimidin-5-yl)(3-(morpholine-4-carbonyl)phenyl) methanone], the inhibition at 10 µM in experiment [2] was determined as 73%; in experiment [3], 49%.
On to `COCCNC(=O)c1ccc(C(=O)c2c[nH]c3ncnc(N[C@@H]4CC[C@@H](CO)OC4)c23)cc1` [Compound I-636, 4-(4-(((3R,6S)-6-(hydroxymethyl)tetrahydro-2H-pyran-3-yl)amino)-7H-pyrrolo[2,3-d]pyrimidine-5-carbonyl)-N-(2-methoxyethyl)benzamide], for which the inhibition at 10 µM in experiment [2] was determined as 62%; in experiment [3] it was 41%.
Turning to `COCCNC(=O)c1cccc(C(=O)c2c[nH]c3ncnc(N[C@@H]4CC[C@@H](CO)OC4)c23)c1` [Compound I-637, 3-(4-(((3R,6S)-6-(hydroxymethyl)tetrahydro-2H-pyran-3-yl)amino)-7H-pyrrolo[2,3-d]pyrimidine-5-carbonyl)-N-(2-methoxyethyl)benzamide], the inhibition at 10 µM was found to be 76% in experiment [2] and 55% in experiment [3].
`Cn1cc(NC(=O)c2cccc(C(=O)c3c[nH]c4ncnc(N[C@@H]5CC[C@@H](CO)OC5)c34)c2)cn1` [Compound I-638, 3-(4-(((3R,6S)-6-(hydroxymethyl)tetrahydro-2H-pyran-3-yl)amino)-7H-pyrrolo[2,3-d]pyrimidine-5-carbonyl)-N-(1-methyl-1H-pyrazol-4-yl)benzamide]: the inhibition at 10 µM in experiment [2] is 63%; in experiment [3], 54%.
As for `O=C(Cc1ccccc1)Nc1ccc(C(=O)c2c[nH]c3ncnc(N[C@@H]4CC[C@@H](CO)OC4)c23)c(Cl)c1` [Compound I-639, N-(3-chloro-4-(4-(((3R,6S)-6-(hydroxymethyl)tetrahydro-2H-pyran-3-yl)amino)-7H-pyrrolo[2,3-d]pyrimidine-5-carbonyl)phenyl)-2-phenylacetamide], the figures for the IC50 in experiment [2] and in experiment [3] were 14.2 nM and 25.6 nM, respectively.
Turning to `O=C(c1ccc(NC(=O)C2(c3ccccc3)CC2)cc1Cl)c1c[nH]c2ncnc(N[C@@H]3CC[C@@H](CO)OC3)c12` [Compound I-640, N-(3-chloro-4-(4-(((3R,6S)-6-(hydroxymethyl)tetrahydro-2H-pyran-3-yl)amino)-7H-pyrrolo[2,3-d]pyrimidine-5-carbonyl)phenyl)-1-phenylcyclopropane-1-carboxamide], the IC50 in experiment [2] was determined as 69.5 nM; in experiment [3], 203 nM.
The matching figures for `O=C(COCc1ccccc1)Nc1ccc(C(=O)c2c[nH]c3ncnc(N[C@@H]4CC[C@@H](CO)OC4)c23)c(Cl)c1` [Compound I-641, 2-(benzyloxy)-N-(3-chloro-4-(4-(((3R,6S)-6-(hydroxymethyl)tetrahydro-2H-pyran-3-yl)amino)-7H-pyrrolo[2,3-d]pyrimidine-5-carbonyl)phenyl) acetamide]: 8.28 nM and 32.6 nM.
The corresponding values for `O=C(Nc1cccc(C(=O)c2c[nH]c3ncnc(N[C@@H]4CC[C@@H](CO)OC4)c23)c1)c1ccccc1` [Compound I-642, N-(3-(4-(((3R,6S)-6-(hydroxymethyl)tetrahydro-2H-pyran-3-yl)amino)-7H-pyrrolo[2,3-d]pyrimidine-5-carbonyl)phenyl)benzamide] are 251 nM and 203 nM.
Regarding `O=C(Nc1cccc(C(=O)c2c[nH]c3ncnc(N[C@@H]4CC[C@@H](CO)OC4)c23)c1)c1ccccn1` [Compound I-643, N-(3-(4-(((3R,6S)-6-(hydroxymethyl)tetrahydro-2H-pyran-3-yl)amino)-7H-pyrrolo[2,3-d]pyrimidine-5-carbonyl)phenyl)picolinamide], the IC50 in experiment [2] stood at 269 nM; in experiment [3], 150 nM.
Turning to `O=C(c1cccc(NC(=O)C2CCOCC2)c1)c1c[nH]c2ncnc(N[C@@H]3CC[C@@H](CO)OC3)c12` [Compound I-644, N-(3-(4-(((3R,6S)-6-(hydroxymethyl)tetrahydro-2H-pyran-3-yl)amino)-7H-pyrrolo[2,3-d]pyrimidine-5-carbonyl)phenyl)tetrahydro-2H-pyran-4-carboxamide], the results for the inhibition at 10 µM in experiment [2] and in experiment [3] were 58% and 44%, respectively.
As for `COCC(=O)Nc1cccc(C(=O)c2c[nH]c3ncnc(N[C@@H]4CC[C@@H](CO)OC4)c23)c1` [Compound I-645, N-(3-(4-(((3R,6S)-6-(hydroxymethyl)tetrahydro-2H-pyran-3-yl)amino)-7H-pyrrolo[2,3-d]pyrimidine-5-carbonyl)phenyl)-2-methoxyacetamide], in experiment [2], the IC50 was 743 nM. The inhibition at 10 µM in experiment [3] was 81%.
As for `O=C(c1ccc(N2CCCCC2)cc1Cl)c1c[nH]c2ncnc(N[C@@H]3CC[C@@H](CO)OC3)c12` [Compound I-646, (2-chloro-4-(piperidin-1-yl)phenyl)(4-(((3R,6S)-6-(hydroxymethyl)tetrahydro-2H-pyran-3-yl)amino)-7H-pyrrolo[2,3-d]pyrimidin-5-yl)methanone], the figures for the IC50 in experiment [2] and in experiment [3] were 380 nM and 781 nM, respectively.
As to `O=C(c1ccc(N2CC3(COC3)C2)cc1Cl)c1c[nH]c2ncnc(N[C@@H]3CC[C@@H](CO)OC3)c12` [Compound I-647, (2-chloro-4-(2-oxa-6-azaspiro[3.3]heptan-6-yl)phenyl)(4-(((3R,6S)-6-(hydroxymethyl)tetrahydro-2H-pyran-3-yl)amino)-7H-pyrrolo[2,3-d]pyrimidin-5-yl)methanone], the IC50 was determined as 1440 nM in experiment [2] and 108 nM in experiment [3].
Turning to `COCCOc1ccc(Cl)c(C(=O)c2c[nH]c3ncnc(N[C@@H]4CC[C@@H](CO)OC4)c23)c1` [Compound I-648, (2-chloro-5-(2-methoxyethoxy)phenyl)(4-(((3R,6S)-6-(hydroxymethyl)tetrahydro-2H-pyran-3-yl)amino)-7H-pyrrolo[2,3-d]pyrimidin-5-yl)methanone], the IC50 in experiment [2] is 731 nM; in experiment [3], 810 nM.
In the case of `COCCOc1cccc(C(=O)c2c[nH]c3ncnc(N[C@@H]4CC[C@@H](CO)OC4)c23)c1` [Compound I-649, (4-(((3R,6S)-6-(hydroxymethyl)tetrahydro-2H-pyran-3-yl)amino)-7H-pyrrolo[2,3-d]pyrimidin-5-yl)(3-(2-methoxyethoxy)phenyl)methanone], in experiment [2], it took 959 nM to reach half-maximal inhibition (IC50). The inhibition at 10 µM in experiment [3] amounted to 82%.
For `O=C(c1ccc(Nc2ccccc2)cc1Cl)c1c[nH]c2ncnc(N[C@@H]3CC[C@@H](CO)OC3)c12` [Compound I-650, (2-Chloro-4-(phenylamino)phenyl)(4-(((3R,6S)-6-(hydroxymethyl)tetrahydro-2H-pyran-3-yl)amino)-7H-pyrrolo[2,3-d]pyrimidin-5-yl)methanone], the IC50 in experiment [2] came out at 202 nM; in experiment [3] it was 326 nM.
Turning to `CNC(=O)c1ccc(Oc2ccc(C(=O)c3c[nH]c4ncnc(N[C@@H]5CC[C@@H](CO)OC5)c34)c(Cl)c2)cn1` [Compound I-651, 5-(3-chloro-4-(4-(((3R,6S)-6-(hydroxymethyl)tetrahydro-2H-pyran-3-yl)amino)-7H-pyrrolo[2,3-d]pyrimidine-5-carbonyl)phenoxy)-N-methyl picolinamide], the IC50 in experiment [2] was found to be 332 nM; in experiment [3] it was 230 nM.
The corresponding values for `COc1ccccc1C(=O)NCc1ccc(C(=O)c2c[nH]c3ncnc(N[C@@H]4CC[C@@H](CO)OC4)c23)cc1` [Compound I-652, N-(4-(4-(((3R,6S)-6-(hydroxymethyl)tetrahydro-2H-pyran-3-yl)amino)-7H-pyrrolo[2,3-d]pyrimidine-5-carbonyl)benzyl)-2-methoxybenzamide] are 177 nM and 497 nM.
The matching figures for `CC(=O)N1C[C@H](Nc2ncnc3[nH]cc(C(=O)c4ccc(Oc5ccccc5)cc4Cl)c23)C[C@H]1CO` [Compound I-655, 1-((2S,4R)-4-((5-(2-chloro-4-phenoxybenzoyl)-7H-pyrrolo[2,3-d]pyrimidin-4-yl)amino)-2-(hydroxymethyl)pyrrolidin-1-yl)ethan-1-one]: 44.5 nM and 52 nM.
The matching figures for `CS(=O)(=O)N1C[C@H](Nc2ncnc3[nH]cc(C(=O)c4ccc(Oc5ccccc5)cc4Cl)c23)C[C@H]1CO` [Compound I-656, (2-chloro-4-phenoxyphenyl)(4-(((3R,5S)-5-(hydroxymethyl)-1-(methylsulfonyl)pyrrolidin-3-yl)amino)-7H-pyrrolo[2,3-d]pyrimidin-5-yl)methanone]: 123 nM and 254 nM.
In the case of `O=C(c1ccc(Oc2ccccc2)cc1Cl)c1c[nH]c2ncnc(NC[C@@H]3C[C@@H](CO)N(Cc4ccccc4)C3)c12` [Compound I-657, (4-((((3S,5S)-1-benzyl-5-(hydroxymethyl)pyrrolidin-3-yl)methyl)amino)-7H-pyrrolo[2,3-d]pyrimidin-5-yl)(2-chloro-4-phenoxyphenyl)methanone], the IC50 came out at 236 nM in experiment [2] and 832 nM in experiment [3].
